pEC50: −log10 of the molar value. In brackets after ≈: the same amount, converted by molar mass. Activity calls are given as the source filed them. The rule behind the calls is not given here.

Data set [1] concerns Human gammaherpesvirus 4. As to the kind of experiment: Reactivation of latent EBV infected in human MUTU-I cells incubated for 48 hrs by steady-glo luciferase reporter assay. The class given is functional, organism-based. The note with it: human gammaherpesvirus 4, MUTU-I.
For data set [2], the system named is Human gammaherpesvirus 4. Kind of data set: Reactivation of latent EBV infected in human MUTU-I cells incubated for 48 hrs by steady-glo luciferase reporter assay relative to C60. The format is functional. On the set-up: concentration or dose not given beside the values. On the technique in general: A reporter such as luciferase makes a cellular process visible.

The test system of data set [3] is Human gammaherpesvirus 4. Kind of data set: Reactivation of latent EBV in human AGS cells xenografted NSG mouse assessed as increase in BZLF1 protein level in tumor mass at 25 mg/kg, ip qd for 3 days starting from 35 days post infection by immunoblot analysis. Background: In xenograft studies the graft and the host belong to different species.
For data set [4], the system named is Human gammaherpesvirus 4. Kind of data set: Reactivation of latent EBV in human SNU-719 cells xenografted NSG mouse assessed as increase in BZLF1 protein level in tumor mass at 30 mg/kg, ip qd for 4 days starting from 28 days post infection by immunoblot analysis. The class given is functional, organism-based.
Data set [5] in a line: Stability in human plasma. The class given is ADME, cell-free. Conditions: read-out: Stability.
Data set [6] can be described thus: Stability in mouse plasma. The format is ADME, cell-free. Conditions: read-out: Stability.
Data set [7] is described as follows: Aqueous solubility of compound in pH 7.4 PBS buffer. The format is physicochemical.
Data set [8] in a line: Half life in mouse liver microsomes. The format is ADME, Microsome.
The nature of data set [9]: Half life in human liver microsomes. The format is ADME, Microsome. Background: Liver microsomes are a subcellular fraction often used to study metabolism.

As usually defined, the pEC50 is −log10 of the EC50, conventionally taken in molar units. As for `COc1ccc(C2c3[nH]c4ccc(Cl)cc4c3CCN2C(=O)c2ccccc2Cl)cc1` (centres undefined), the pEC50 in data set [1] is 5.61.

As to `COC(=O)c1ccccc1NC(=O)N1CCc2c([nH]c3ccccc23)C1c1ccc(OC)cc1` (centres undefined), the Activity in data set [2] stood at 14%.

In data set [1], `COc1ccc(C2c3[nH]c4ccc(Cl)cc4c3CCN2C(=O)c2ccc(C(F)(F)F)cc2)cc1` (centres undefined) showed a pEC50 of 6.36.

The molecule `COc1ccc(C2c3[nH]c4ccc(Cl)cc4c3CCN2C(=O)c2ccccc2C(F)(F)F)cc1` (centres undefined) gave a pEC50 in data set [1] of 5.80.

In turn, `COC(=O)c1sccc1NC(=O)N1CCc2c([nH]c3ccc(OC)cc23)C1c1ccc(C)cc1` (centres undefined) had a negative logarithm of the EC50 (pEC50) in data set [1] of 6.24.

Regarding `COc1ccc(C(=O)N2CCc3c([nH]c4ccc(Cl)cc34)C2c2ccc(OC)cc2)cc1` (centres undefined), the negative-log EC50 (pEC50) in [1] is 6.81.

`COC(=O)c1cccc(NC(=O)N2CCc3c([nH]c4ccc(Cl)cc34)C2c2ccc(OC)cc2)c1` (centres undefined): the Activity in data set [2] is recorded as 17%.

With `COCCOCCOCCOc1ccc(C2c3[nH]c4ccc(Cl)cc4c3CCN2C(=O)Nc2ccccc2Cl)cc1` (centres undefined), the result in data set [3] and in data set [4] was Active.

For the molecule `COc1ccc(C2c3[nH]c4ccc(Cl)cc4c3CCN2C(=O)Nc2ccccc2OC)cc1` (centres undefined), the Activity in data set [2] amounted to 79%. In data set [1], this molecule had a pEC50 of 6.77.

Molecule `COc1ccc(C2NCCc3c2[nH]c2ccc(Cl)cc32)cc1` (centres undefined) gave a pEC50 in data set [1] of 6.67.

For `COc1ccc(C2c3[nH]c4ccc(Cl)cc4c3CCN2S(=O)(=O)c2ccccc2OC)cc1` (centres undefined), the pEC50 in data set [1] is 5.40.

For `COc1ccc(C2c3[nH]c4ccc(Cl)cc4c3CCN2C(=O)c2ccc(Cl)cc2)cc1` (centres undefined), in data set [1], the negative-log EC50 (pEC50) was 6.64.

With `COc1ccc(C2c3[nH]c4ccc(Cl)cc4c3CCN2C(=O)c2cccc(CN3CCOCC3)c2)cc1` (centres undefined), in data set [1], the pEC50 was 6.56.

As for `O=C(c1cccc(CN2CCOCC2)c1)N1CCc2c([nH]c3ccc(Cl)cc23)C1c1ccc(Cl)cc1` (centres undefined), the pEC50 in data set [1] is 6.56.

`COc1ccc(C2c3[nH]c4ccccc4c3CCN2C(=O)Nc2ccccc2OC)cc1` (centres undefined): the Activity in data set [2] is listed as 15%.

For the molecule `CCOC(=O)c1ccccc1NC(=O)N1CCc2c([nH]c3ccc(OC)cc23)C1c1ccc(C)cc1` (centres undefined), in data set [1], the pEC50 is 5.97.

In data set [1], `COc1ccc(C2c3[nH]c4ccc(Cl)cc4c3CCN2S(=O)(=O)c2ccc(OC)cc2)cc1` (centres undefined) gave a pEC50 of 5.10.

As a reminder, the solubility is how much of the substance goes into solution per volume. On to `COc1ccc(C2c3[nH]c4ccc(Cl)cc4c3CCN2C(=O)c2cccc(OC)c2)cc1` (centres undefined), for which the half-life in data set [5] and in data set [6] was more than 6 h in each case. In [7], this molecule registered a solubility of 166 µg/mL (≈ 371 µM). Also, the t1/2 in [8] was 0.517 h; in data set [9], more than 1.5 h. The pEC50 in data set [1] is 6.77.

`COCCOCCOCCOc1ccc(C2c3[nH]c4ccc(Cl)cc4c3CCN2C(=O)Nc2ccccc2C(=O)OC)cc1` (centres undefined): the result in data set [3] and in [4] was Active.

In the case of `COC(=O)c1ccccc1NC(=O)N1CCc2c([nH]c3ccc(Cl)cc23)C1c1ccc(OC)cc1` (centres undefined), the half-life in data set [5] and in data set [6] was more than 6 h each time. In data set [7], the solubility is less than 10 µg/mL. Further, the t1/2 was more than 1.5 h in data set [8] and 1.3 h in data set [9]. In [1], this molecule gave a pEC50 of 6.80.

With `COc1ccc(C2c3[nH]c4ccc(Cl)cc4c3CCN2C(=O)Nc2ccc(OC)cc2OC)cc1` (centres undefined), the pEC50 in data set [1] is 5.95.

In [2], `COc1ccc(NC(=O)N2CCc3c([nH]c4ccc(Cl)cc34)C2c2ccc(OC)cc2)cc1` (centres undefined) yielded an Activity of 31%.

On to `COc1cccc(C(=O)N2CCc3c([nH]c4ccc(Cl)cc34)C2c2ccc(O)cc2)c1` (centres undefined), for which the result in data set [4] was Active. Moreover, the pEC50 in data set [1] was 6.51.

In turn, `COc1ccc(C2c3[nH]c4ccc(Cl)cc4c3CCN2C(=O)Nc2cccc(OC)c2)cc1` (centres undefined) yielded an Activity in [2] of 43%.

Take `COc1ccc(C2c3[nH]c4ccc(Cl)cc4c3CCN2C(=O)c2ccccc2OC)cc1` (centres undefined): in [1], the pEC50 was 5.37.

(Values after ChEMBL document CHEMBL4433253, “Development of a novel inducer for EBV lytic therapy” (Bioorg Med Chem Lett, 2019).)
